Measurements taken from PubChem BioAssay AID2694 (The Scripps Research Institute Molecular Screening Center, 2010).

target: Mucolipin-3 (Homo sapiens) (UniProt Q8TDD5); assay: TRPML3 channel current activation, late-stage follow-up, orthogonal assay, HEK293, whole-cell patch clamp, -80 mV (AID 2694); conditions: at 10 µM, active compounds read low
Sequence (Q8TDD5 whole entry, looked up): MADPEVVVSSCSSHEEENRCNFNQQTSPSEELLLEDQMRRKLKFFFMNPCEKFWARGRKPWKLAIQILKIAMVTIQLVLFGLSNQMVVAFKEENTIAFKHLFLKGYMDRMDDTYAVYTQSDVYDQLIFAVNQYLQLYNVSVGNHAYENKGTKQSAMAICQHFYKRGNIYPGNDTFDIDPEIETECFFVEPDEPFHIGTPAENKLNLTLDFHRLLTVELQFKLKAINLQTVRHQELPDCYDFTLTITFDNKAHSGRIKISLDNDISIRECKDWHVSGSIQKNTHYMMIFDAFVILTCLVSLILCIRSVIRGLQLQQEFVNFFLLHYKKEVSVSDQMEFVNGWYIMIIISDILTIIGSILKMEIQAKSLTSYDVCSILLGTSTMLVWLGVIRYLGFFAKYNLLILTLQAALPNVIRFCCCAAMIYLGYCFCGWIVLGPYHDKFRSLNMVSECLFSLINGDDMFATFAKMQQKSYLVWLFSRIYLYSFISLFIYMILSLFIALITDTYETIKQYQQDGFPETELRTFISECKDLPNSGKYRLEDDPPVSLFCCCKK

Current density at -80 mV, active:
CC1CCN(S(=O)(=O)c2ccc(C(C)C)cc2)CC1 -0.02 nA/pF, CCOc1ccc(S(=O)(=O)N2CCCCCC2)c2ccccc12 -0.19 nA/pF, Cc1ccc(S(=O)(=O)n2nccc2-c2c(-c3ccc(Cl)cc3)noc2C)cc1 -0.14 nA/pF
